Experiments:
Homo sapiens = organism: Homo sapiens; experiment: Selectivity ratio of Ki for human SK3 to Ki for human SK2
[1] = target: Small conductance calcium-activated potassium channel protein 3 (Homo sapiens, UniProt Q9UGI6); experiment: Displacement of [125I]apamin from human SK3 expressed in HEK293 cells assessed as inhibition constant incubated for 1 hr by liquid scintillation counting analysis; type: cell-based
[2] = target: T1, Small conductance calcium-activated potassium channel protein 2 (Homo sapiens, UniProt Q9H2S1); experiment: Displacement of [125I]apamin from human SK2 expressed in HEK293 cells assessed as inhibition constant incubated for 1 hr by liquid scintillation counting analysis; type: cell-based
[3] = target: T1, Small conductance calcium-activated potassium channel protein 2; experiment: Displacement of [125I]apamin from SK2 (unknown origin) expressed in HEK293 cells assessed as inhibition constant incubated for 1 hr by liquid scintillation counting analysis; type: cell-based

T1 sequence (Q9H2S1 whole entry): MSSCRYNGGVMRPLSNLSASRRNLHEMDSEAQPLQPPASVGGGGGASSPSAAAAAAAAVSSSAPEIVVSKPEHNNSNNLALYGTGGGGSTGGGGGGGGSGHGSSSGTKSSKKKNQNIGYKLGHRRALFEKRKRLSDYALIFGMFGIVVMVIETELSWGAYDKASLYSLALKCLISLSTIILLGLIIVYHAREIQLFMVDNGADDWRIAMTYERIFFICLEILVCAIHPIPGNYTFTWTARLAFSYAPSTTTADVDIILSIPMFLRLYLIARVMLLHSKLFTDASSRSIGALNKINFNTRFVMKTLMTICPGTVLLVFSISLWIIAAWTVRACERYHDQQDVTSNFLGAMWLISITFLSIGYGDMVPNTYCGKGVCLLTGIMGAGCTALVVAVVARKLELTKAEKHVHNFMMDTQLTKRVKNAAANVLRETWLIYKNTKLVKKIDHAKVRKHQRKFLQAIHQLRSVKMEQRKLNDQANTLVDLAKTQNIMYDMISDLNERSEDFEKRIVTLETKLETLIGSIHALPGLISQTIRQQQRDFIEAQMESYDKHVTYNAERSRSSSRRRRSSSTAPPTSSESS
Small conductance calcium-activated potassium channel protein 3, sequence (Q9UGI6 whole entry): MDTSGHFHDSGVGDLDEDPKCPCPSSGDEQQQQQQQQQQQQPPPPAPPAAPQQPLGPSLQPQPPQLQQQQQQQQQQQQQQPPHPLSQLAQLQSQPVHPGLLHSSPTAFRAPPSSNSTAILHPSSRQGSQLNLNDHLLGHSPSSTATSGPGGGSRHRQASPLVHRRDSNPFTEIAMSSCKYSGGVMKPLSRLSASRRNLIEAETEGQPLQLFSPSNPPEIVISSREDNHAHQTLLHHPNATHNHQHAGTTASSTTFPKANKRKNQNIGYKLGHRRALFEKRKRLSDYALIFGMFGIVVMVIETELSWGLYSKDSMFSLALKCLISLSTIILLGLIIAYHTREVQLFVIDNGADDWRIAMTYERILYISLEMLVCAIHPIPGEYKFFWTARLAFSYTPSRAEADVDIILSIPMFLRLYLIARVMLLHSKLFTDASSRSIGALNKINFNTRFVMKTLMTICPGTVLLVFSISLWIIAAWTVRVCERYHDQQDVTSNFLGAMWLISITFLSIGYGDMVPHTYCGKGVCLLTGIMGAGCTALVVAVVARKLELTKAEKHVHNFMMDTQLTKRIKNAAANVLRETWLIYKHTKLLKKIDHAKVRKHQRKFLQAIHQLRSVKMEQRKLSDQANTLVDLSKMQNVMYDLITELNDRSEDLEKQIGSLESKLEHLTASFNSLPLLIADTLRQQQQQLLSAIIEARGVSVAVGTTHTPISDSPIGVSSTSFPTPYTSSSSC

Structure (SMILES)	Ratio Ki (Homo sapiens)	Ki [1] [nM]	Ki [2] [nM]	Ki [3] [nM]
COc1cc2c3cc1Oc1c(OC)c(OC)cc4c1[C@@H](Cc1ccc(O)c(c1)Oc1ccc(cc1)C[C@@H]3N(C)CC2)N(C)CC4 [BERBAMINE]	2.17	679	284	
COc1cc2c(cc1OC)[C@H](CCC[C@H]1c3cc(OC)c(OC)cc3CCN1C)N(C)CC2				277

From ChEMBL document CHEMBL5357064 (ACS Med Chem Lett, 2024)
